target: T1, Human TRPC6 (Homo sapiens, UniProt Q9Y210); assay: Evaluation of TRPC6 channel inhibitory activity (1), FLIPR Calcium 5 Assay Kit, OAG stimulation (Compound Nos. 1-1293); assay type: cell-based; details: Human TRPC6 stably-expressing cells, OAG 30 μM, FLIPR Calcium 5 Assay Kit; read-out: Inhibitory activity (pIC50 class) (converted)
T1 construct: expressed in transfected cells
T1 sequence (Q9Y210 1-931): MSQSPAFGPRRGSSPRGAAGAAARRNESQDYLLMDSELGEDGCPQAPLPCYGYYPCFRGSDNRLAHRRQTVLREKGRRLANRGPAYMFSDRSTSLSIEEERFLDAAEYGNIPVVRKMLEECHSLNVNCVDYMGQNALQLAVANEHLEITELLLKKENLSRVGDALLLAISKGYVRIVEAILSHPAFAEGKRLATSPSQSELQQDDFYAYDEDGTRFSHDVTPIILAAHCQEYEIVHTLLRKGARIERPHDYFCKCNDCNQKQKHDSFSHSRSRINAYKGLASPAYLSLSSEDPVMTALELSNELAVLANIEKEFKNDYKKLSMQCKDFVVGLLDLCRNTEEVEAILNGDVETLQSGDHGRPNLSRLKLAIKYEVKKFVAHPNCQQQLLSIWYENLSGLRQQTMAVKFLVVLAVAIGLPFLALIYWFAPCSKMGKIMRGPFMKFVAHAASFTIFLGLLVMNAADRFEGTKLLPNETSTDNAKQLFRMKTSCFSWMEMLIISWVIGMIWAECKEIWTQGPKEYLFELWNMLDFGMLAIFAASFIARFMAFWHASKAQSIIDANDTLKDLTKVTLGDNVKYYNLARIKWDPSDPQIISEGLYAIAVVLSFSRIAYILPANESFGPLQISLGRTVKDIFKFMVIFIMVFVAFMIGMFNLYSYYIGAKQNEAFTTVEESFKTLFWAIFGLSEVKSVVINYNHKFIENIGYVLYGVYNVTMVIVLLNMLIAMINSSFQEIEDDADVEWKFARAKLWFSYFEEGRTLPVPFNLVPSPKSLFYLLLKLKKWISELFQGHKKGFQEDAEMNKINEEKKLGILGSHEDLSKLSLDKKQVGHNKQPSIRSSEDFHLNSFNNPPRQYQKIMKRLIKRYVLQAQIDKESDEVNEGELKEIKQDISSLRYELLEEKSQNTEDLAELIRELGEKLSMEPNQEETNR
Outline: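 Readout is pIC50 from four-parameter logistic fitting of inhibition of the OAG-evoked (30 μM final) fluorescence calcium signal. Human TRPC6 stable cells are dye-loaded with probenecid, and compound is applied 20 min ahead of agonist.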

Row | IC50 | Structure (SMILES)
1 | 10 to 1000 nM | N#Cc1ccc(-c2ncc(CCN)cn2)c(Oc2nnc(N3CC(F)C3)s2)c1 [compound 722, 4-[5-(2-aminoethyl)pyrimidin-2-yl]-3-[[5-(3-fluoroazetidin-1-yl)-1,3,4-thiadiazol-2-yl]oxy]benzonitrile]
2 | 10 to 1000 nM | N#Cc1ccc(-c2ncc(CCN)cn2)c(Oc2nnc(N3CCOCC3)s2)c1 [compound 723, 4-[5-(2-aminoethyl)pyrimidin-2-yl]-3-[(5-morpholin-4-yl-1,3,4-thiadiazol-2-yl)oxy]benzonitrile]
3 | < 10 nM | CCN(CC)c1nnc(Oc2cc(C#N)ccc2-c2ncc(CCN)cn2)s1 [compound 724, 4-[5-(2-aminoethyl)pyrimidin-2-yl]-3-[[5-(diethylamino)-1,3,4-thiadiazol-2-yl]oxy]benzonitrile]
4 | > 1000 nM | N#Cc1ccc(-c2ncc(CN)cn2)c(Oc2nnc(N3CCCC3)s2)c1 [compound 725, 4-[5-(aminomethyl)pyrimidin-2-yl]-3-[(5-pyrrolidin-1-yl-1,3,4-thiadiazol-2-yl)oxy]benzonitrile]
5 | 10 to 1000 nM | N#Cc1ccc(-c2ncc(CCN)cn2)c(Oc2nnc(N3CCCC3)s2)c1 [compound 726, 4-[5-(2-aminoethyl)pyrimidin-2-yl]-3-[(5-pyrrolidin-1-yl-1,3,4-thiadiazol-2-yl)oxy]benzonitrile]
6 | 10 to 1000 nM | CN(C)c1nnc(Oc2cc(C#N)ccc2-c2ncc(CCN)cn2)s1 [compound 727, 4-[5-(2-aminoethyl)pyrimidin-2-yl]-3-[[5-(dimethylamino)-1,3,4-thiadiazol-2-yl]oxy]benzonitrile]
7 | 10 to 1000 nM | N#Cc1ccc(-c2ncc(CCN)cn2)c(Oc2nnc(C3CC3)s2)c1 [compound 728, 4-[5-(2-aminoethyl)pyrimidin-2-yl]-3-[(5-cyclopropyl-1,3,4-thiadiazol-2-yl)oxy]benzonitrile]
8 | 10 to 1000 nM | N#Cc1ccc(-c2ncc(CCN)cn2)c(Oc2nnc(-c3cccnc3)s2)c1 [compound 729, 4-[5-(2-aminoethyl)pyrimidin-2-yl]-3-[(5-pyridin-3-yl-1,3,4-thiadiazol-2-yl)oxy]benzonitrile]
9 | 10 to 1000 nM | N#Cc1ccc(-c2ncc(CCN)cn2)c(Oc2nnc(-c3ccncc3)s2)c1 [compound 730, 4-[5-(2-aminoethyl)pyrimidin-2-yl]-3-[(5-pyridin-4-yl-1,3,4-thiadiazol-2-yl)oxy]benzonitrile]
10 | > 1000 nM | Cn1nc(C2CC2)cc1Oc1cc(C#N)ccc1-c1cc(CN)cn2cnnc12 [compound 731, 4-[6-(aminomethyl)-[1,2,4]triazolo[4,3-a]pyridin-8-yl]-3-(5-cyclopropyl-2-methylpyrazol-3-yl)oxybenzonitrile]
11 | 10 to 1000 nM | Cn1nc(-c2ccccn2)cc1Oc1cc(C#N)ccc1-c1cc(CN)cn2cnnc12 [compound 732, 4-[6-(aminomethyl)-[1,2,4]triazolo[4,3-a]pyridin-8-yl]-3-(2-methyl-5-pyridin-2-ylpyrazol-3-yl)oxybenzonitrile]
12 | > 1000 nM | Cc1cc(Oc2cc(C#N)ccc2-c2cc(CN)cn3cnnc23)cc(N2CCOCC2)n1 [compound 733, 4-[6-(aminomethyl)-[1,2,4]triazolo[4,3-a]pyridin-8-yl]-3-(2-methyl-6-morpholin-4-ylpyridin-4-yl)oxybenzonitrile]
13 | < 10 nM | CCC(N)c1cnc(-c2ccc(C#N)cc2Oc2cc(-c3ccccn3)nn2C)nc1 (centres unmarked) [compound 734, 4-[5-(1-aminopropyl)pyrimidin-2-yl]-3-(2-methyl-5-pyridin-2-ylpyrazol-3-yl)oxybenzonitrile]
14 | < 10 nM | CCC(N)c1cnc(-c2ccc(C#N)cc2Oc2cc(C)nc(N3CCOCC3)c2)nc1 (centres unmarked) [compound 735, 4-[5-(1-aminopropyl)pyrimidin-2-yl]-3-(2-methyl-6-morpholin-4-ylpyridin-4-yl)oxybenzonitrile]
15 | 10 to 1000 nM | Cn1nc(C2CC2)cc1Oc1cc(C#N)ccc1-c1cc(CN)cn2ccnc12 [compound 736, 4-[6-(aminomethyl)imidazo[1,2-a]pyridin-8-yl]-3-(5-cyclopropyl-2-methylpyrazol-3-yl)oxybenzonitrile]

The remaining lines, values behind:

Row | Structure (SMILES) | IC50
16 | N#Cc1ccc(-c2ncc(CCN)cn2)c(Oc2nnc(N3CCCCC3)s2)c1 [compound 704, 4-[5-(2-aminoethyl)pyrimidin-2-yl]-3-[(5-piperidin-1-yl-1,3,4-thiadiazol-2-yl)oxy]benzonitrile] | < 10 nM
17 | N#Cc1ccc(-c2ncc(CN)cn2)c(Oc2nnc(-c3ccccc3)s2)c1 [compound 705, 4-[5-(aminomethyl)pyrimidin-2-yl]-3-[(5-phenyl-1,3,4-thiadiazol-2-yl)oxy]benzonitrile] | 10 to 1000 nM
18 | N#Cc1ccc(-c2ncc(CCN)cn2)c(Oc2nnc(-c3ccccc3)s2)c1 [compound 706, 4-[5-(2-aminoethyl)pyrimidin-2-yl]-3-[(5-phenyl-1,3,4-thiadiazol-2-yl)oxy]benzonitrile] | < 10 nM
19 | N#Cc1ccc(-c2ncc(CN)cn2)c(Oc2nnc(N3CCCCC3)s2)c1 [compound 707, 4-[5-(aminomethyl)pyrimidin-2-yl]-3-[(5-piperidin-1-yl-1,3,4-thiadiazol-2-yl)oxy]benzonitrile] | 10 to 1000 nM
20 | Cc1nc(Oc2cc(C#N)ccc2-c2ncc(CN)cn2)cc(N2CCO[C@@H](C)C2)n1 [compound 708, 4-[5-(aminomethyl)pyrimidin-2-yl]-3-[2-methyl-6-[(2S)-2-methylmorpholin-4-yl]pyrimidin-4-yl]oxybenzonitrile] | < 10 nM
21 | Cc1nc(Oc2cc(C#N)ccc2-c2ncc(CN)cn2)cc(N2C[C@@H](C)O[C@@H](C)C2)n1 [compound 709, 4-[5-(aminomethyl)pyrimidin-2-yl]-3-[6-[(2R,6S)-2,6-dimethylmorpholin-4-yl]-2-methylpyrimidin-4-yl]oxybenzonitrile] | 10 to 1000 nM
22 | Cc1nc(Oc2cc(C#N)ccc2-c2ncc(CN)cn2)cc(N2CCOC(C)(C)C2)n1 [compound 710, 4-[5-(aminomethyl)pyrimidin-2-yl]-3-[6-(2,2-dimethylmorpholin-4-yl)-2-methylpyrimidin-4-yl]oxybenzonitrile] | 10 to 1000 nM
23 | CC(C)c1cc(Oc2cc(C#N)ccc2-c2ccc(CN)n3ccnc23)n(C)n1 [compound 711, 4-[5-(aminomethyl)imidazo[1,2-a]pyridin-8-yl]-3-(2-methyl-5-propan-2-ylpyrazol-3-yl)oxybenzonitrile] | < 10 nM
24 | N#Cc1ccc(-c2ncc(CN)cn2)c(Oc2cnnc(C3CC3)c2)c1 [compound 713, 4-[5-(aminomethyl)pyrimidin-2-yl]-3-(6-cyclopropylpyridazin-4-yl)oxybenzonitrile] | 10 to 1000 nM
25 | N#Cc1ccc(-c2ncc(CN)cn2)c(Oc2cnnc(N3CCCC3)c2)c1 [compound 714, 4-[5-(aminomethyl)pyrimidin-2-yl]-3-(6-pyrrolidin-1-ylpyridazin-4-yl)oxybenzonitrile] | < 10 nM
26 | N#Cc1ccc(-c2ncc(CN)cn2)c(Oc2cnnc(N3CCCCC3)c2)c1 [compound 715, 4-[5-(aminomethyl)pyrimidin-2-yl]-3-(6-piperidin-1-ylpyridazin-4-yl)oxybenzonitrile] | < 10 nM
27 | CN(C)c1cc(Oc2cc(C#N)ccc2-c2ncc(CN)cn2)cnn1 [compound 716, 4-[5-(aminomethyl)pyrimidin-2-yl]-3-[6-(dimethylamino)pyridazin-4-yl]oxybenzonitrile] | 10 to 1000 nM
28 | N#Cc1ccc(-c2ccc(CCN)cn2)c(Oc2nnc(N3CCOCC3)s2)c1 [compound 717, 4-[5-(2-aminoethyl)pyridin-2-yl]-3-[(5-morpholin-4-yl-1,3,4-thiadiazol-2-yl)oxy]benzonitrile] | 10 to 1000 nM
29 | N#Cc1ccc(-c2ccc(CCN)cn2)c(Oc2nnc(C3CC3)s2)c1 [compound 718, 4-[5-(2-aminoethyl)pyridin-2-yl]-3-[(5-cyclopropyl-1,3,4-thiadiazol-2-yl)oxy]benzonitrile] | < 10 nM
30 | N#Cc1ccc(-c2ccc(CCN)cn2)c(Oc2nnc(N3CCCC3)s2)c1 [compound 719, 4-[5-(2-aminoethyl)pyridin-2-yl]-3-[(5-pyrrolidin-1-yl-1,3,4-thiadiazol-2-yl)oxy]benzonitrile] | 10 to 1000 nM
31 | N#Cc1ccc(-c2ncc(CN)cn2)c(Oc2nnc(N3CCC3)s2)c1 [compound 720, 4-[5-(aminomethyl)pyrimidin-2-yl]-3-[[5-(azetidin-1-yl)-1,3,4-thiadiazol-2-yl]oxy]benzonitrile] | > 1000 nM
32 | N#Cc1ccc(-c2ncc(CN)cn2)c(Oc2nnc(N3CC(F)C3)s2)c1 [compound 721, 4-[5-(aminomethyl)pyrimidin-2-yl]-3-[[5-(3-fluoroazetidin-1-yl)-1,3,4-thiadiazol-2-yl]oxy]benzonitrile] | > 1000 nM

Reference: US20230167073A1 (Teijin Pharma Limited, priority 2020, published 2023)
